Results: patent US20030060469A1, “Use of substances that act as cascade inhibitors of the raf/mek/erk signal cascade, for producing a medicament to treat dna and rna viruses” (priority 2000, published 2003)
Like-named read-outs stand apart in the source and are kept apart here.

How the values were obtained:
[1] = system: influenza A virus stem WSN-HK
MDCK cells = conditions: concentrations corresponding to the infection test (up to 50 μM), macroscopic examination and propidium iodide staining
[2] = system: Borna disease virus (BDV)
[3] = mouse model; oral administration; up to a cumulating dose of 6 g/kg body weight; cited from earlier work

N#CC(=C(N)Sc1ccccc1N)C(C#N)=C(N)Sc1ccccc1N [U0126, 1,4-diamino-2,3-dicyano-1,4-bis[2-aminophenylthio]butadiene]
reduction of the number of newly generated infectious virus particles in the cell culture medium [1]: approx. 80% | cytotoxic effect on the cells (MDCK cells): neither solvent nor inhibitor have a significant cytotoxic effect on the cells | virus foci (spreading of BDV infection) ([2]; administration of 6 μM, compared to untreated infectious reference cells): no difference of the virus foci | virus foci (spreading of BDV infection) ([2]; administration of 12.5 μM): the effect is not clear anymore | virus foci (spreading of BDV infection) ([2]; one-time administration of 25 μM, cultivation time of 7 days): no virus foci are visible

O=C(NOCC1CC1)c1ccc(F)c(F)c1Nc1ccc(I)cc1Cl [PD184352, 2-(2-chloro-4-iodo-phenylamino)-N-cyclopropyl-methoxy-3,4-difluoro-benzamide]
signs of toxicity [3]: without showing any significant signs of toxicity
